Measurements reported in patent US20210260015A1, “COMPOSITION FOR INHIBITING FAT ACCUMULATION” (National University Corporation Tokyo University of …, priority 2018, published 2021).

Tests used:
Assay type in all cases: in vivo, C57BL/6J male mice
[1] = Body weight changes of mice fed test diets for 5 weeks; details: conclusion from diet groups, C8 vs C10 and C12
Procedure: (§1) Seven (7)-week-old C57BL/6J male mice (Japan SLC, Inc.) were acclimated with CLEA Rodent Diet CE-2 (manufactured by CLEA Japan, Inc.) for 1 week, and divided into 5 groups (n=9 or 10). Any of feeds having the compositions indicated in Tables 1 and 2, i.e., four types of test diets and a normal diet, was given to the respective groups for 5 weeks. Specifically, as the test diets, MCT diets were prepared by blending MCTs and LCT in a low-carbohydrate high-fat diet feed made based on an AIN-93G standard composition feed, and an LCT diet was prepared by blending LCT (manufactured by Wako Pure Chemical Industries) alone, without MCT, in a low-carbohydrate high-fat diet feed made based on an AIN-93G standard composition feed. […]
(§2) The ingestion amounts of the test diets and the body weight changes during the test period (5 weeks) were measured, and the weights of the various organs including adipose tissues and the plasma levels of ketone bodies were measured at the end of the test period. […] In addition, plasma was collected from the collected blood, and ketone bodies were quantified according to an enzymatic method.

[2] = Plasma levels of ketone bodies 5 weeks after the beginning of ingestion (enzymatic method); details: conclusion from diet groups
Procedure: as §1, §2

[3] = Weights of adipose tissues 5 weeks after the beginning of ingestion; details: conclusion from diet groups, C8 vs C10 or C12
Procedure: as §1, §2

SMILES: CCCCCCCC(=O)OCC(COC(=O)CCCCCCC)OC(=O)CCCCCCC [caprylic acid triglyceride (C8), caprylic acid triglyceride]
- effect for suppressing body weight gain depending on the number of carbon atoms of the constituent fatty acid of MCT [1]: has a higher effect for suppressing body weight gain than those of capric acid triglyceride (C10) and lauric acid triglyceride (C12)
- ketone body production, C8 vs C10 or C12 triglyceride [2]: produces ketone bodies more than those produced by capric acid triglyceride (C10) or lauric acid triglyceride (C12)
- effect for suppressing neutral fat accumulation depending on the number of carbon atoms of the constituent fatty acid of MCT [3]: has a higher effect for suppressing neutral fat accumulation than that of capric acid triglyceride (C10) or lauric acid triglyceride (C12)
